Measured values taken from patent publication US10166239B2, “Tropomyosin-related kinase (Trk) inhibitors” (Genzyme Corporation, priority 2013, dated 2019).

Key:
[1] = system: Reactivated Peptidoglycan-Polysaccharide Knee Arthritis; assay: Reactivated peptidoglycan-polysaccharide (PGPS) knee arthritis; format: in vivo, Male Lewis rats; conditions: for gait scores, second reactivation: intra-articular dose on day −7 (Triamcinolone 0.06 mg: day 15, 17, 18; test compound 1 mg: throughout second reactivation); for gait deficiency, second reactivation / gait scores and deficiency, first reactivation: intra-articular dose on day −7 (Triamcinolone 0.06 mg; test compound 1 mg); for gait deficiency, second reactivation: days 15, 17 and 18; for gait scores and deficiency, first reactivation: first reactivation (days 1-4)
Description: Male Lewis rats were acclimated to the testing facility for 7 days. The rats were housed in 5 per cage in shoe-box polycarbonate cages with wire tops, wood chip bedding and suspended food and water bottles. On day −21, the male Lewis rats were randomized into treatment groups by body weight. The rats were anesthetized and injected with peptidoglycan-polysaccharide (PGPS) into the right knee to induce PGPS arthritis. Arthritis was reactivated on days 0 and 14 by an IV tail injection of PGPS. […] The rats were weighed at baseline on days 0, 4, 14 and 18. […] Gait analysis was performed by applying ink to the ventral surface of the foot and documenting weight bearing during movement across paper. The animals were terminated at day 18. Right knees were removed, trimmed of extraneous tissue, and collected into 10% neutral buffered formalin. After two days in the formalin buffer and three days in 10% formic acid decalcifier, the knees were cut into two approximately equal halves in the frontal plane and processed for paraffin embedding and stained with T. Blue. Histological examinations were subsequently performed for bone resorption, inflammation, pannus and cartilage damage. […] Gait scores were analyzed using a Kruskal-Wallis test (non-parametric ANOVA) with Dunn's multiple comparison post-test. Histopathology scores were analyzed using a Kruskal-Wallis test (non-parametric ANOVA) with Dunn's multiple comparison post-test.

[2] = system: Monosodium Iodoacetate Induced Osteoarthritis; assay: Monosodium iodoacetate (MIA) induced osteoarthritis; format: in vivo, Male Wistar rats
Description: Male Wistar rats were acclimated to the testing facility for 5 days. The rats were individually housed in micro-isolator shoe-box polycarbonate cages with cob bedding and water bottles. Dry pelleted food of known composition and nutritional components was provided ad libitum Animals were randomized by treatment type using an online random number generator. Each treatment group was assigned a number, entered into the random number generator, recorded then translated back to the associated treatment. All injections were given in the left leg unless the treatment indicated “Contralateral” in which case the injection was given in the right leg. Both legs were shaved on all animals at the time of the treatment injections to blind the test administrator. The rats were weighed the day prior to injection with monosodium iodoacetate (MIA), the agent used to induce osteoarthritis in the animals. The day of injection, rats from groups 2-8 received a subcutaneous (SC) dose of buprenorphine at least one hour prior to induction. […] Naïve animals were then placed in recovery. All other animals received an injection of MIA. In animals receiving MIA, the hind leg was flexed and an injection of MIA (25 μL) was injected into the intra-articular space using a 27 gauge ½ inch needle. Standard postoperative care was performed (twice daily for 48 hours). On Day 8 the test article was administered as described above. On Days −1, 7, 14, 21, 28, and 35 post-induction, weight bearing was assessed. A weight bearing scale was utilized using a plexiglass chamber to assess the amount of weight distributed in each hind limb. The animals were acclimated to the chamber for at least 5 minutes prior to testing and the weight distribution was recorded 5 times. The animals were terminated at day 36. Both stifles were collected from each animal; the skin was removed from the joint and the patella was removed while leaving as much of the fat pad intact with the joint. The stifle was placed in the appropriate cassette with rolled gauze to secure the stifle in the cassette and then placed into 4% Paraformaldehyde. These samples were examined histologically.

[3] = Triamcinolone 0.06 mg intra-articular

| Structure (SMILES) | reduction of AUC values of gait scores and deficiency, each reactivation calculated separately [1, 3] | reduction of AUC values of gait scores and deficiency, summed [1, 3] | reductions in the AUC of knee caliper measurements [1, 3] | Knee caliper measurements ([1]; Triamcinolone 0.06 mg intra-articular, days 0, 2, 4, 16 and 18) | gait scores, second reactivation [1] | gait deficiency, second reactivation [1] | gait scores and deficiency, first reactivation [1] | AUC values of knee caliper measurements ([1]; 1 mg intra-articular) | reduction of AUC values of gait scores and deficiency, first reactivation ([1]; 1 mg intra-articular) | reduction of AUC values of gait scores and deficiency, second reactivation ([1]; 1 mg intra-articular) | Knee caliper measurements ([1]; 1 mg intra-articular, day 14 (just prior to the second reactivation)) | efficacy (weight bearing) ([2]; 10 μg Contralateral injection) | efficacy (weight bearing) ([2]; 10 μg Ipsilateral injection) | efficacy (weight bearing) ([2]; 30 μg Contralateral injection) | efficacy (weight bearing) ([2]; 30 μg Ipsilateral injection) | systemic pain relief (weight bearing) ([2]; 100 μg Contralateral injection, 1-4 weeks) | efficacy (weight bearing) ([2]; 100 μg Ipsilateral injection) | MIA/LRS compared with treatment (p<0.05) ([2]; Ipsilateral 100 μg and 30 μg, day 35) | body weight results ([2]; intra-articular 10, 30, 100 μg on Day 8) | Histopathology of the knee joint, adverse changes ([2]; stifles collected at day 36) |
| --- | --- | --- | --- | --- | --- | --- | --- | --- | --- | --- | --- | --- | --- | --- | --- | --- | --- | --- | --- | --- |
| C[C@]12C=CC(=O)C=C1CC[C@H]1[C@@H]3C[C@@H](O)[C@](O)(C(=O)CO)[C@@]3(C)C[C@H](O)[C@@]12F [Triamcinolone, reference compound] | 74-99% | 88-92% | 53-106% | significantly reduced | significantly reduced | significantly reduced | significantly reduced |  |  |  |  |  |  |  |  |  |  |  |  |  |
| COc1ccc(COc2ccc(Cn3c(N)nc4cc(-c5cnn(C)c5)cnc43)cc2OC)cc1 [Ex. 3-15, 3-(3-Methoxy-4-((4-methoxybenzyl)oxy)benzyl)-6-(1-methyl-1H-pyrazol-4-yl)-3H-imidazo[4,5-b]pyridin-2-amine] |  |  |  |  | significantly reduced throughout the second reactivation | reductions in deficiency were significant | significant reductions | generally unaffected | 92-93% | 85-86% | significantly reduced on day 14 | efficacy at 3 and 4 weeks following administration | efficacy was observed at 2 through 4 weeks following administration | efficacy at only the 3 week timepoint | effective throughout the four weeks following administration | did not show systemic pain relief at any timepoint | effective throughout the four weeks following administration | MIA/LRS was significantly worse | No adverse observations | no adverse changes |
